“Also recorded” adds a separate entry of the source.
Tested on: Male Sprague Dawley (SD) rats
Test: Cortagine-induced visceral hypersensitivity to colorectal distension
Format: in vivo, rat
Excerpt: Male Sprague Dawley (SD) rats (250-275 g, Harlan Labs, Indianapolis, Ind.) were kept under standard conditions of humidity and temperature and a 12-hour light/dark cycle (lights on 6.00 a.m.). Animals were group housed and had access to food ad libitum. Prior to the start of studies, animals were acclimatized to handling and administration of treatments (oral syringe feeding and subcutaneous injection). At the end of the experiments, animals were sacrificed by CO2 gas inhalation followed by thoracotomy or isoflurane anesthesia followed by decapitation with appropriate approved animal protocols.
On the day of the experiments, rats were injected intraperitoneally (IP) with cortagine (10 μg/kg, 0.8 ml/kg in DMSO/cremophor/isotonic saline (1:1:8 v:v:v). Cortagine, a selective corticotropin releasing factor receptor 1 (CRF1) agonist, prepared as described previously (Rivier et al. J. Med. Chem. 2007: 50:1668-1674), was stored in a powder form at −80° C. and prepared in sterile water (12.5 μg/ml) immediately before use. This dose had previously been established to show a significant increase in defecation, induction of diarrhea and increase in colonic motility, permeability and visceral pain in rats. (Larauche et al. Am. J. Physiol. Gastrointest. Liver Physiol. 2009: 297:G215-G227)
FAAH inhibitor compounds URB597 [3′-(aminocarbonyl)biphenyl-3-yl cyclohexyl carbamate], compound A and compound B were formulated as suspensions in DMSO/cremophor/isotonic saline (1:1:8 v:v:v). The concentration of the respective dosing FAAH inhibitor compound suspensions were 6 mg/ml for 30 mg/kg dose of compound A or compound B; 2 mg/ml for the 10 mg/kg dose of compound B; and 1.5 mg/ml for the 3 mg/kg dose of URB597. Compound A, compound B or vehicle treatment was administered to rats by per os (PO) route at dose-volume of 5 ml/kg. URB597 treatment was administered to rats by subcutaneous (SC) route at dose volume of 2 ml/kg. The vehicle for the PO route was DMSO/cremophor/isotonic saline (1:1:8 v:v:v). Vehicle (PO), URB597 (SC), compound A and compound B (PO) were administered to non-fasted rats, restrained by hand. The regimen of administration of URB597, compound A and compound B involved one delivery (PO or SC) performed 120 min before IP injection of cortagine.
Visceral pain was assessed using a non-invasive pressure transducer system referred to as “sensor balloon” as previously described (Larauche et al. Am. J. Physiol. Gastrointest. Liver Physiol. 2009: 297:G215-G227; Ness et al. Brain Res. 1988: 450:153-169). Briefly, in adult non-fasted SD rats, a 4-5 cm “sensor balloon” lubricated with surgical lubricant (Surgilube, Fougera, Melville) was inserted intra-anally under brief isoflurane anesthesia. The “sensor balloon” was positioned such that its distal end was 1 cm proximal to the anal verge and secured in place by tapping the balloon catheter to the tail. Rats were placed individually in Boolman's cage and allowed to recover from anesthesia and habituation. The colorectal procedure was performed using the Distender Series Ilir dual barostat (G&J Electronics Inc, Toronto, Ontario). The CRD protocol consisted of 2 CRD at 60 mmHg to unfold the balloon followed by 2 sets of CRD at 10, 20, 40 and 60 mmHg, 20 s duration, 4-min inter-stimulus interval. The intra-luminal colonic pressure (ICP) was recorded for 20 s before, during and after termination of CRD. […]

[1] = 3 mg/kg SC 2 h before cortagine
[2] = 3 mg/kg SC 2 h before cortagine, n=11
[3] = 3 mg/kg SC 2 h before cortagine, normalized to baseline VMR at 60 mmHg

In the case of `NC(=O)c1cccc(-c2cccc(OC(=O)NC3CCCCC3)c2)c1` [URB597, 3′-(aminocarbonyl) biphenyl-3-yl cyclohexyl carbamate, reference compound], the “% hypersensitive rats at 40 mmHg” value [1] is reported as 55%, the “rats with increased VMR over baseline between 0 and 50% at 60 mmHg” value [1] is reported as 18% and the “rats with increased VMR over baseline between 51 and 100% at 60 mmHg” value [1] is reported as 9%. For the same compound, the “rats with increased VMR over baseline over 101% at 60 mmHg” value [1] was 9%, the “effect on cortagine-induced visceral hypersensitivity to CRD” value (3 mg/kg SC 2 h before cortagine 10 μg/kg IP, 40 and 60 mmHg) was “abolished the visceral hypersensitivity; also recorded: prevented the visceral hypersensitivity” and the “rats presenting a decrease in VMR compared to baseline at 60 mmHg” value [2] was 64%. The “rats presenting an increased VMR over baseline (% hypersensitive rats) at 60 mmHg” value [2] was 36%, the “VMR to CRD at 40 mmHg” value [3] was 81.89±16.38% and the “VMR to CRD at 60 mmHg” value [3] was 97.62±20.02%. For the same compound, the “VMR versus vehicle/cortagine rats at 60 mmHg CRD” value (second trial, URB597 3 mg/kg SC 2 h before cortagine IP, n=7, p<0.001) was “significant differences” and the “antihyperalgesic effects in the cortagine model of visceral pain” value (summary statement referring to Example 3) was “did exhibit antihyperalgesic effects”.

— patent US20130224151A1, “Use of FAAH Inhibitors for Treating Abdominal, Visceral and Pelvic Pain” (UNITED STATES OF AMERICA, priority 2010, published 2013)
